# Data reported in article PMC9038204, “SNX27–Retromer directly binds ESCPE-1 to transfer cargo proteins during endosomal recycling” (PLoS Biology, 2022).
# How the values were obtained:
# SNX6 = assay: GFP trap co-immunoprecipitation from HEK-293T, quantitative western blot: SNX6; type: binding; conditions: Fig. 3F, GFP-tagged SNX1 WT or mutant as bait, WT set to 100, mean of n = 4
# Protocol: (§1) HeLa and HEK-293T cell lines were sourced from ATCC. Authentication was from the ATCC. Cells were grown in DMEM (Sigma-Aldrich) supplemented with 10% (v/v) FCS (Sigma-Aldrich) and penicillin/streptomycin (Gibco, USA) and grown under standard conditions. FuGENE HD (Promega, USA) was used for transient transfection of DNA according to the manufacturer’s instructions. Cycloheximide was used to prevent up-regulation of protein synthesis. In this case, cycloheximide (C7698; Sigma-Aldrich) at 10 μg/ml was added to the cells 48 hours after FuGENE transfection for the indicated time points. For the generation of CRISPR-Cas9 SNX27 knockout HeLa cells, HeLa cells were transfected with pX330 plasmid coding for the gRNA against the gene of interest together with a puromycin resistance–expressing plasmid. Cells were then subjected to puromycin selection for 24 hours. The pooled population of cells was subjected to lysis and western blotting to confirm the knockout. The VPS35 knockout clonal cell line used in this study was characterized previously. For GFP-based immunoprecipitations, HEK293T cells were transfected with GFP constructs using polyethylenimine (Sigma-Aldrich) and expression was allowed for 48 hours.
# (§2) For western blotting, cells were lysed in PBS with 1% (v/v) Triton X-100 and protease inhibitor cocktail. The protein concentration was determined with a BCA assay kit (Thermo Fisher Scientific, USA), and equal amounts were resolved on NuPAGE 4% to 12% precast gels (Invitrogen, USA). Blotting was performed onto polyvinylidene fluoride membranes (Immobilon-FL; EMD Millipore, USA) followed by detection using the Odyssey infrared scanning system (LI-COR Biosciences, USA). For GFP-based immunoprecipitations, HEK-293T cells were lysed 48 hours after transfection in immunoprecipitation buffer (50 mM Tris-HCl, 0.5% (v/v) NP-40, and Roche protease inhibitor cocktail) and subjected to GFP trap (ChromoTek, Germany). Immunoblotting was performed using standard procedures. Detection was performed on an Odyssey infrared scanning system (LI-COR Biosciences) using fluorescently labeled secondary antibodies. In using the Odyssey, we routinely performed western blot analysis where a single blot is simultaneously probed with antibodies against 2 proteins of interest (distinct antibody species) followed by visualization with the corresponding secondary antibodies conjugated to distinct spectral dyes.
# SNX27 = assay: GFP trap co-immunoprecipitation of GFP-SNX1/SNX2 constructs from HEK-293T, quantitative western blot: SNX27; type: binding; conditions: for SNX27 co-immunoprecipitated (quantitative western blot), mean: Fig. 3F, GFP-tagged SNX1 WT or mutant as bait, HEK-293T, WT set to 100, mean of n = 4; for reduced binding to SNX27: full-length GFP-SNX1 point mutants in HEK293T, versus SNX1 WT
# Protocol: as §1, §2
# [1] = test system: HeLa cells, endogenous GLUT1; assay: Cycloheximide degradation assay, GLUT1 level; type: cell-based; conditions: for GLUT1 level, 0h: 0h (set to 100)
# Protocol: as §1, §2
# [2] = test system: HeLa cells, endogenous ITGA5; assay: Cycloheximide degradation assay, ITGA5 level; type: cell-based; conditions: for ITGa5 level, 0h: 0h (set to 100)
# Protocol: as §1, §2
# [3] = 8h relative to 0h = 100, replicate n1, Fig. 6C
# [4] = 8h relative to 0h = 100, replicate n2, Fig. 6C
# [5] = 8h relative to 0h = 100, replicate n3, Fig. 6C
Substance,"SNX6 co-immunoprecipitated (quantitative western blot), mean (SNX6)","SNX27 co-immunoprecipitated (quantitative western blot), mean (SNX27; GFP trap)",reduced binding to SNX27 (SNX27; Fig 3F),further results
D45K,102,45.07,,
D87K,115.6,34.69,,
E42K,105.5,52.35,,
E44K,113.2,63.19,,
E84K,104.1,45.59,,
F47K,98.51,42.86,,
F89D,109.4,41.68,,
GFP-SNX1(D45K): full-length GFP-SNX1 point mutant in the first aDLF motif,,,around 50%,
"GFP-SNX1(D45K,D87K): double mutant targeting key residues in both aDLF motifs of SNX1",,,,"SNX27 binding, in words (SNX27; Fig 3F, S2B Fig, double aDLF mutants in HEK293T, GFP trap): near undetectable levels"
GFP-SNX1(E42K): full-length GFP-SNX1 point mutant in the first aDLF motif,,,around 50%,
GFP-SNX1(E44K): full-length GFP-SNX1 point mutant in the first aDLF motif,,,around 50%,
GFP-SNX1(F47K): full-length GFP-SNX1 point mutant in the first aDLF motif,,,around 50%,
GFP-SNX1(I46K): full-length GFP-SNX1 point mutant in the first aDLF motif,,,around 50%,
I46K,90.56,47.55,,
KO +GFP-SNX1,,,,"GLUT1 level, 0h ([1]; replicate n1, Fig. 6C): 100; GLUT1 level, 0h ([1]; replicate n2, Fig. 6C): 100; GLUT1 level, 0h ([1]; replicate n3, Fig. 6C): 100; GLUT1 level, 0h, Mean 1 ([1]; 0h, mean of n = 3, Fig. 6C): 100; GLUT1 level, 8h, Mean 2 ([1]; 8h relative to 0h = 100, mean of n = 3, Fig. 6C): 106.2; GLUT1 level, 8h [1, 3]: 90.4645; GLUT1 level, 8h [1, 4]: 112.847; GLUT1 level, 8h [1, 5]: 115.364; ITGa5 level, 0h ([2]; replicate n1, Fig. 6C): 100; ITGa5 level, 0h ([2]; replicate n2, Fig. 6C): 100; ITGa5 level, 0h ([2]; replicate n3, Fig. 6C): 100; ITGa5 level, 0h, Mean 1 ([2]; 0h, mean of n = 3, right-hand (unlabelled) statistics block, Fig. 6C): 100; ITGa5 level, 8h [2, 3]: 98.9429; ITGa5 level, 8h [2, 4]: 105.348; ITGa5 level, 8h [2, 5]: 145.221"
